Patent US20240308995A1, “O-GLYCOPROTEIN-2-ACETAMIDO-2-DEOXY-3-D-GLUCOPYRANOSIDASE INHIBITORS” (BIOGEN MA INC., priority 2018, published 2024)

Tests used:
[1] = Rat Liver Microsome Stability Assay; type: in vitro ADME; conditions: rat liver microsomes, 1 uM compound
[2] = biological target: Recombinant full length human OGA enzyme (Homo sapiens (Human), UniProt O60502); assay: OGA Enzyme Inhibition Biochemical Assay; conditions: 1 nM OGA, 100 μM 4-MUGlcNAc, pH 6.4
Method in brief: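 Full-length recombinant human OGA with fluorogenic 4-MUGlcNAc in McIlvaine buffer pH 6.4, 0.01% BSA; 90 min at room temperature, glycine pH 10 quench, fluorescence Ex 355/Em 460 nm. 10-point, 4-fold dilution from 20 μM; 4-parameter variable-slope fit.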

[3] = biological target: OGA (S400 O-GLCNAC), HEK-293T cells transfected with Tau-V5 (Homo sapiens (Human), UniProt O60502); assay: Cellular OGA-Tau MSD Assay; type: cell-based; conditions: HEK-293T cells, Tau-S400-GlcNAc MSD readout
Method in brief: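 HEK-293T cells transfected with OGA and Tau-V5 plasmids were treated overnight at 37° C with a 10-point, 3-fold titration from 1 uM. Lysates went onto V5-antibody MSD plates to capture Tau, probed with a Tau O-GlcNAc antibody and read by electrochemiluminescence; IC50 from a 4-parameter fit.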

P-gp (MDR1) = assay: MDR1-MDCK Efflux Ratio Assay; type: in vitro ADME; conditions: dog, MDCK-MDR1, pH 7.4, MDR1-MDCK cells, 2 hr, pH 7.4; read-out: MDR1-MDCK Efflux Ratio (B-A/A-B)
Method in brief: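 Bidirectional (apical↔basolateral) transport across confluent MDR1-MDCK monolayers in HBSS/10 mM HEPES pH 7.4, receiver buffer with 1% BSA; 2 hr at 37° C, 5% CO2. Donor sampled at 0 and 120 min, receiver at 120 min, quantified by LC-MS/MS in triplicate. Papp, efflux ratio and percent recovery calculated.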

Sequence of Recombinant full length human OGA enzyme (O60502 whole entry): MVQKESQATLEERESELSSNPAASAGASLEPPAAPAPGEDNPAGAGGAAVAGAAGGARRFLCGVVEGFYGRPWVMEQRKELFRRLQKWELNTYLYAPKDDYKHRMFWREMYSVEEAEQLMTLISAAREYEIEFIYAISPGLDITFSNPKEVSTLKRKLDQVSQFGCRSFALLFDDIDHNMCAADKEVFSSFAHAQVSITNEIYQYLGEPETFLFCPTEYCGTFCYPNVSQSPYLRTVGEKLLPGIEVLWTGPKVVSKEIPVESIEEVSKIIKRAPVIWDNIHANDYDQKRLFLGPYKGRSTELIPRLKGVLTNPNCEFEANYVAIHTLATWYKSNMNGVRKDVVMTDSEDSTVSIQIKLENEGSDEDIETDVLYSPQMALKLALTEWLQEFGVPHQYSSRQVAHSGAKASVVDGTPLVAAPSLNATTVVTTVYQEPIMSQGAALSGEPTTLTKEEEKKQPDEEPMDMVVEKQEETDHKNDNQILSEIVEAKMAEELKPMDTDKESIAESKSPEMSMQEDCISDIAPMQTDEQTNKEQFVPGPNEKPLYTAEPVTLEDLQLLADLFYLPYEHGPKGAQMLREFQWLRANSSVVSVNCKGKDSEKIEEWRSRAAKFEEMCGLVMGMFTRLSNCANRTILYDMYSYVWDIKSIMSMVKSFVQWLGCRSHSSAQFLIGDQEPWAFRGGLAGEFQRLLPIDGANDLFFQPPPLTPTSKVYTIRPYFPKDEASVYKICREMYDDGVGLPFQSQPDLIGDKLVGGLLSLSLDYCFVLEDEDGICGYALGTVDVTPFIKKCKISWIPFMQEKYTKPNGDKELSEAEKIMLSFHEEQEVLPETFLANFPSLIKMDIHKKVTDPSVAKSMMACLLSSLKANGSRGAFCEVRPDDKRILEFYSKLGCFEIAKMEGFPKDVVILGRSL
Sequence of OGA (S400 O-GLCNAC), HEK-293T cells transfected with Tau-V5 (O60502 whole entry): as above

Row | RLM % Qh (%) [1] [%] | IC50 [2] [nM] | IC50 [3] [nM] | efflux ratio at 2 h (P-gp (MDR1)) | Compound
1 | 85 | < 1 | 1 | 3.5 | COc1cc(O[C@@H]2C[C@H](C)N(Cc3sc(NC(C)=O)nc3F)C2)ncc1F [Example 1-118, N-(4-fluoro-5-(((2S,4R)-4-((5-fluoro-4-methoxypyridin-2-yl)oxy)-2-methylpyrrolidin-1-yl)methyl)thiazol-2-yl)acetamide]
2 | 30 | < 1 | 4 | 5.9 | [2H][C@@]1(Oc2cc(OC)ncn2)C[C@H](C)N(Cc2cnc(NC(C)=O)s2)C1 (single isomer, unassigned) [Example 1-163]
3 | 57 | 55 | 30 | 4.5 | COc1cc(O[C@H]2C[C@H](C)N(Cc3cnc(NC(C)=O)s3)C2)ncn1 [Example 1-39, N-(5-(((2S,4S)-4-((6-methoxypyrimidin-4-yl)oxy)-2-methylpyrrolidin-1-yl)methyl)thiazol-2-yl)acetamide]
4 | 32 | < 1 | 3 | 2.1 | COCCOc1cc(O[C@@H]2C[C@H](C)N(Cc3cnc(NC(C)=O)s3)C2)ncn1 [Example 1-122, N-(5-(((2S,4R)-4-((6-(2-methoxyethoxy)pyrimidin-4-yl)oxy)-2-methylpyrrolidin-1-yl)methyl)thiazol-2-yl)acetamide]
5 | 29 | < 1 | 3 | 4.6 | [2H]C([2H])(c1cnc(NC(C)=O)s1)N1C[C@H](Oc2cc(OC)ncn2)C[C@@H]1C (single isomer, unassigned) [Example 1-160]
6 | 35 | < 1 | 2 | 5.2 | [2H]C([2H])([2H])C(=O)Nc1ncc(CN2C[C@H](Oc3cc(OC)ncn3)C[C@@H]2C)s1 (single isomer, unassigned) [Example 1-156]
7 | 56 | < 1 | 1 | 21.3 | CC(=O)Nc1ncc(CN2C[C@H](Oc3cc(C)nc(C)c3)C[C@@H]2C)s1 [Example 1-60, N-(5-(((2S,4R)-4-((2,6-dimethylpyridin-4-yl)oxy)-2-methylpyrrolidin-1-yl)methyl)thiazol-2-yl)acetamide]
8 | 24 | < 1 | 2 | 32 | CC(=O)Nc1ncc(CN2C[C@H](Oc3cc(NC(C)C)ncn3)C[C@@H]2C)s1 [Example 1-136, N-(5-(((2S,4R)-4-((6-(isopropylamino)pyrimidin-4-yl)oxy)-2-methylpyrrolidin-1-yl)methyl)thiazol-2-yl)acetamide]
9 | 64 | 7.2 | 8 | 55.1 | CC(=O)Nc1ncc(CN2C[C@H](Oc3cc(C)ncc3C)C[C@@H]2C)s1 [Example 1-72, N-(5-(((2S,4R)-4-((2,5-dimethylpyridin-4-yl)oxy)-2-methylpyrrolidin-1-yl)methyl)thiazol-2-yl)acetamide]
10 | 85 | 1.1 | 13 | 19 | CC(=O)Nc1nc(F)c(CN2CCC[C@@H](Oc3cc(C)nc(C)c3)C2)s1 [Example 1-55, (R)—N-(5-((3-((2,6-dimethylpyridin-4-yl)oxy)piperidin-1-yl)methyl)-4-fluorothiazol-2-yl)acetamide]
11 | 91 | < 1 | 2 | 1.8 | CC(=O)Nc1nc(F)c(CN2C[C@H](Oc3ncccc3F)C[C@@H]2C)s1 [Example 1-94, N-(4-fluoro-5-(((2S,4R)-4-((3-fluoropyridin-2-yl)oxy)-2-methylpyrrolidin-1-yl)methyl)thiazol-2-yl)acetamide]
12 | 48 | 2.4 | 12 | 11.7 | CC(=O)Nc1ncc(CN2C[C@H](Oc3cc(C(F)F)ncn3)C[C@@H]2C)s1 [Example 1-18, N-(5-(((2S,4R)-4-((6-(difluoromethyl)pyrimidin-4-yl)oxy)-2-methylpyrrolidin-1-yl)methyl)thiazol-2-yl)acetamide]
13 | 33 | 16 | 47 | 1.8 | COc1cc(O[C@@H]2CCN(Cc3sc(NC(C)=O)nc3F)C2)ncn1 [Example 1-28, (R)—N-(4-fluoro-5-((3-((6-methoxypyrimidin-4-yl)oxy)pyrrolidin-1-yl)methyl)thiazol-2-yl)acetamide]
14 | 55 | < 1 | 1 | 19.6 | CC(=O)Nc1ncc(CN2C[C@@H](Oc3ccc(C)nc3)C[C@H]2C)s1 (stereo in doubt) [Example 1-116, N-(5-(((2R,4S)-2-methyl-4-((6-methylpyridin-3-yl)oxy)pyrrolidin-1-yl)methyl)thiazol-2-yl)acetamide]
15 | 60 | < 1 | 2 | 3.8 | CC(=O)Nc1nc(F)c(CN2C[C@H](Oc3ccc(F)nc3)C[C@@H]2C)s1 [Example 1-85, N-(4-fluoro-5-(((2S,4R)-4-((6-fluoropyridin-3-yl)oxy)-2-methylpyrrolidin-1-yl)methyl)thiazol-2-yl)acetamide]
16 | 75 | < 1 | 4 | 25.6 | CC(=O)Nc1nc(F)c(CN2C[C@H](Oc3cc(N4CCOCC4)ccn3)C[C@@H]2C)s1 [Example 1-143, N-(4-fluoro-5-(((2S,4R)-2-methyl-4-((4-morpholinopyridin-2-yl)oxy)pyrrolidin-1-yl)methyl)thiazol-2-yl)acetamide]
17 | 26 | < 1 | < 1 | 11.2 | CC(=O)Nc1ncc(CN2C[C@H](Oc3ncc(F)cn3)C[C@@H]2C)s1 [Example 1-86, N-(5-(((2S,4R)-4-((5-fluoropyrimidin-2-yl)oxy)-2-methylpyrrolidin-1-yl)methyl)thiazol-2-yl)acetamide]
18 | 76 | < 1 | 2 | 19.7 | CCN(C)c1cc(O[C@@H]2C[C@H](C)N(Cc3cnc(NC(C)=O)s3)C2)ncn1 [Example 1-132, N-(5-(((2S,4R)-4-((6-(ethyl(methyl)amino)pyrimidin-4-yl)oxy)-2-methylpyrrolidin-1-yl)methyl)thiazol-2-yl)acetamide]
19 | 30 | < 1 | 2 | 16 | CC(=O)Nc1ncc(CN2C[C@H](Oc3ccnc(C)n3)C[C@@H]2C)s1 [Example 1-104, N-(5-(((2S,4R)-2-methyl-4-((2-methylpyrimidin-4-yl)oxy)pyrrolidin-1-yl)methyl)thiazol-2-yl)acetamide]

Row | Compound | RLM % Qh (%) [1] [%] | IC50 [2] [nM] | IC50 [3] [nM] | efflux ratio at 2 h (P-gp (MDR1))
20 | CO[C@H]1C[C@H](Oc2cc(O[C@@H]3C[C@H](C)N(Cc4cnc(NC(C)=O)s4)C3)ncn2)C1 [Example 1-120, N-(5-(((2S,4R)-4-((6-((1r,3R)-3-methoxycyclobutoxy)pyrimidin-4-yl)oxy)-2-methylpyrrolidin-1-yl)methyl)thiazol-2-yl)acetamide] | 64 | < 1 | 2 | 10.3
